From patent US20250288607A1, “METHODS FOR TREATING SEXUAL DYSFUNCTION ASSOCIATED WITH POLYCYSTIC OVARY SYNDROME (PCOS) OR WITH HYPOACTIVE SEXUAL DESIRE DISORDER (HSDD)” (INSTITUT NATIONAL DE LA SANTÉ ET DE LA RECHERCHE MÉDICALE, priority 2022, published 2025)
No end group written: not given here.

Experiments:
nNOS^VMH neurons [1] = test: Lordosis test after chemogenetic inhibition (hM4D(Gi) DREADD) of nNOS^VMH neurons with CNO; format: in vivo, mice
Protocol: (§1) Female sexual behavior test. Estrus female mice were tested for lordosis behavior over the dark phase following previously reported protocols (25, 40). During the annotation of sexual behavior, we also assessed sexual rejection behaviors over the same period of time.
(§2) Chemogenetic manipulations (viral transfection, stereotaxic injections, and behavioral assessment). The AAV9 double floxed Gi-coupled hM4D DREADD fused with fluorescent mCherry protein under the control of human synapsin promoter (AAV-hSyn-DIO-hM4D(Gi)-mCherry) (Addgene; catalog #44362-AAV9) was stereotaxically injected into the vlVMH of Nosl-ires-cre female mice under 4% isoflurane anesthesia with constant airflow. Lordosis test was carried out as described above with sexually experience female mice after three lordosis test trials. Females received i.p. injection with 100 μL of clozapine N-oxide dihydrochloride (CNO; Tocris; catalog #6329), at a dose of 3 mg/kg diluted in sterile saline, one hour before behavioral assessment. Each mouse received either CNO or saline (vehicle) in a random order, and the two behavioral assessments were performed ten days apart.
Among the three hypothalamic areas investigated in our study, the VMH (nNOS^VMH) is considered as the NOergic output responsible to control sexual performance in mammalian females (23), whereas nNOS^RP3V and nNOS^ARN are likely to contribute to the neuroendocrine control of GnRH/LH secretion (57, 58). […] To this end, we selectively targeted the expression of designer receptors exclusively activated by designer drugs (DREADD)-based tool hM4(Gi) into the VMH of Nos1cre/+ (Nos1-ires-cre; B6.129-Nos1tm1(cre)Mgmj/J) female mice (59). Viral transduction was established using a Cre-recombinase-dependent adeno-associated virus serotype 9 in which hM4 (Gi) is fused with mCherry reporter under the control of human synapsin (hSyn) promoter (AAV9-hSyn-DIO-hM4D(Gi)-mCherry) (Data not shown). The control group was composed of wild-type female mice receiving the same stereotaxic surgery. This approach provided an average efficiency of 86.82±2.33% of nNOS^VMH neurons targeted with AAV9-hM4 (Gi)-mCherry and with an off-target infection rate of 5.48±2.17% in non-nNOS^VMH neurons (N=5; Data not shown).
Following viral transfection, Nos1^cre/+ female mice were subjected to two lordosis tests and randomly received either vehicle or the DREADD ligand clozapine N-oxide (CNO; 3 mg/kg) one hour before behavioral assessment.

nNOS^VMH neurons [2] = test: Lordosis test with CNO pre-treatment followed by kisspeptin-10 (kisspeptin-nNOS^VMH coupling); format: in vivo, mice
Protocol: as §2
(§3) Pharmacological treatments. SNAP: Female mice received a subcutaneous (s.c.) injection with 8 mg/kg S-nitroso-N-Acetyl-DL-Penicillamine (SNAP) (Sigma-Aldrich; catalog ##N3398) diluted in 100 μL of saline 15 minutes before behavioral testing and the chosen dose was based on previous reports (25). Kisspeptin: Female mice received a s.c. injection with 0.52 μg/kg kisspeptin-10 (Kiss-10; rodent metastin (45-54) amide; GeneCust; YY-10-NH2) diluted in 100 μL of saline 30 minutes before behavioral test based on previous reports (25). Sildenafil citrate: Female mice received an i.p. injection with 15 mg/kg sildenafil citrate (Sigma-Aldrich; catalog #171599-83-0) 1h before behavioral assessment based on previous trials from our laboratory (Chachlaki et al., unpublished data). Sildenafil citrate was firstly diluted in dimethyl sulfoxide (DMSO) to make up a stock solution of 25 mg/mL and further diluted with sterile saline to make up a working solution of 15 mg/mL for s.c. injection on the day of the injection.
Using a similar approach as described above, we stereotaxically delivered the expression of AAV9-hM4(Gi)-mCherry in nNOS^VMH neurons in both Nos1cre/+ and wild-type female mice. […]

[3] = cited from earlier work
cFOS = test: Percentage of cells expressing cFOS in hypothalamic and limbic areas following the lordosis test; format: in vivo, mice
Protocol: Immunohistochemistry. Tissue preparation for immunohistochemistry is shown in SI Appendix. Free-floating immunohistochemistry was performed as described elsewhere (29, 73). Primary antibodies were used at the respective concentrations: polyclonal sheep anti-nNOS (1:2,000; generous gift from Dr. Piers C. Emson and validated elsewhere (74)), polyclonal rabbit anti-PR (1:500; Sigma; catalog #SAB4502184), rabbit anti-red fluorescent protein (RPF) (1:500; Rockland Immunochemicals, Inc.; catalog #600-401-379), and polyclonal chicken anti-GFP (1:1,000; Aves Labs Inc., catalog #GFP-1020). Brain sections were incubated with a cocktail of primary antibodies and 2% normal donkey serum (NDS) in incubation solution (0.25% bovine serum albumin with 0.3% Triton in TBS) over 48 hours at 4° C. Following washes with TBS, brain sections were incubated with secondary antibodies. Alexa Fluor 488 donkey anti-sheep (reference #A11015), Alexa Fluor 647 donkey anti-rabbit, (reference #A31573), Alexa Fluor 568 donkey anti-rabbit (reference #A10042) were all purchased from Thermo Fisher Scientific Inc. and used at 1:400 dilution in TBS solution. Alexa Fluor 488 donkey anti-chicken (Jackson ImmunoResearch Labs; reference #703-545-155) was used at 1:500 dilution in TBS solution. Sections were mounted onto glass slides and left to dry until covered with Fluoromount-G™ with DAPI (Invitrogen/Thermo Fisher Scientific Inc.; reference #00-4959-52), and coverslipped.
Image acquisition and analysis. Two representative brain sections from each region (RP3V, VMH, rARN, mARN, and cARN) were chosen from each animal for Immunohistological analysis. Brain sections were firstly examined using an Axio Imager, Z1 ApoTome microscope (Zeiss, Oberkochen, Germany), and an AxioCam MRm camera (Zeiss). Confocal imaging and analyses Zeiss Spinning-Disk microscope Yokogawa CSU-X1 model (Zeiss; BioImaging Center Lille (BICeL), of the University of Lille, France). High magnification images were acquired taking Z-stacks of 0.5 μm-steps using a 40x-oil objective (1.30 NA). Confocal images were further processed with ImageJ software for cell counting analysis. Final analysis considered the average counting from two representative sections of each region.
We aimed to determine how 8 mg/kg SNAP treatment may change the neuronal activation landscape in the female brain in estrus control and PAMH mice following the lordosis test. […]

[4] = tested on: control and PAMH female mice; test: Female sexual behavior test (lordosis, mild and severe rejection quotients) after pharmacological treatment; format: in vivo
Protocol: as §1
All behavior tests were videotaped and manually annotated using Behavioral Observation Research Interactive Software (BORIS) (76).
as §3
Previous reports indicate that the control of female sexual behavior is highly dependent upon NOergic signaling in rodents (23-25). Having established the loss of nNOS expression in hypothalamic sites in PAMH mice, we next addressed whether the replenishment of NO levels could rescue normal sexual function in these females. Control and PAMH female mice were injected either with saline or S-nitroso-N-acetylpenicillamine (SNAP; 8 mg/kg), a well-known NO donor to boost circulating NO levels.
NO-mediated physiological responses are mostly dictated by intracellular levels of cyclic guanosine monophosphate (cGMP). Commonly used drugs for male sexual dysfunction, such as sildenafil citrate, commercialized as Viagra®, enhance NOergic signaling by decreasing the degradation of cGMP accumulating intracellular levels of the latest. To determine the severity of NO insufficiency in PAMH mice, we administered sildenafil citrate to both groups and evaluated lordosis behavior.

[5] = Nos1cre/+ female mice, CNO 3 mg/kg, P<0.01
[6] = wild-type control group with same surgery, CNO 3 mg/kg
[7] = PAMH female mice, SNAP 8 mg/kg, P<0.0001, similar to control levels
[8] = control female mice, SNAP 8 mg/kg

C[N+]1([O-])CCN(C2=Nc3cc(Cl)ccc3Nc3ccccc32)CC1.Cl.Cl [CNO, clozapine N-oxide dihydrochloride]
lordosis quotient (LQ) (nNOS^VMH neurons [1]; Nos1cre/+ female mice with AAV9-hM4D(Gi)-mCherry in VMH, CNO 3 mg/kg i.p. one hour before test, P<0.01 vs vehicle): 4.24±2.26 | mild rejection behavior vs vehicle-injected mice (nNOS^VMH neurons [1]; [5]): higher | severe rejection behavior vs vehicle-injected mice (nNOS^VMH neurons [1]; [5]): higher | lordosis behavior, CNO vs vehicle (nNOS^VMH neurons [1]; [6]): did not show any difference between treatments | mild rejection behavior, CNO vs vehicle (nNOS^VMH neurons [1]; [6]): did not show any difference between treatments | severe rejection behavior, CNO vs vehicle (nNOS^VMH neurons [1]; [6]): did not show any difference between treatments | sexual (lordosis) behavior (nNOS^VMH neurons [2]; Nos1cre/+ female mice, CNO pre-treatment, P<0.01): caused significant disruption of sexual behavior | lordosis behavioral output (nNOS^VMH neurons [2]; control (wild-type) female mice, CNO alone, pre-injection -60 min): did not have any effect

rodent metastin (45-54) amide (YNWNSFGLRY-NH2; UniProt Q6Y4S4 110-119, looked up) [kisspeptin-10, kisspeptin-10 peptide from GeneCust]
lordosis performance (nNOS^VMH neurons [2]; control (wild-type) female mice, kisspeptin-10 0.52 μg/kg, -30 min, P<0.05): significantly enhanced lordosis performance

[N]=O [Nitric oxide]
half-life in the blood [3]: a few seconds

CC(=O)NC(C(=O)O)C(C)(C)SN=O (racemic) [SNAP, S-nitroso-N-Acetyl-DL-Penicillamine]
cFOS expression in vlPAG and dmPAG (cFOS; PAMH mice, SNAP 8 mg/kg): did not alter cFOS expression | proportion of nNOS neurons expressing cFOS (vlVMH, pdMeA) (cFOS; PAMH mice, SNAP 8 mg/kg, P<0.05): fully restored the proportion of nNOS cells expressing cFOS to control levels | cFOS expression in vlPAG and dmPAG (cFOS; control mice, SNAP 8 mg/kg vs vehicle, P<0.05): lower cFOS expression compared with vehicle-treated control mice | cFOS expression in MPA, MnPO, vlVMH and pdMeA (cFOS; estrus PAMH mice, SNAP 8 mg/kg, after lordosis test): increased cFOS expression in all of these four regions in PAMH mice to control levels | lordosis quotient (LQ) ([4]; PAMH female mice, SNAP 8 mg/kg s.c. 15 minutes before test, mean±SEM): 68.17±6.97 | fold increase of lordosis behavior vs saline ([4]; PAMH female mice, SNAP 8 mg/kg vs saline): ~7.28 fold | lordosis behavior (in words) ([4]; PAMH female mice, SNAP 8 mg/kg, P<0.0001): robustly recovered normal lordosis behavior in PAMH female mice similar to control levels | mild rejection behavior (MRQ) [4, 7]: significantly reduced | severe rejection behavior (SRQ) [4, 7]: significantly reduced | mild rejection behavior (MRQ) [4, 8]: did not change these parameters | severe rejection behavior (SRQ) [4, 8]: did not change these parameters
